This note sets out measurements from US20250302832A1, “PYRAZINE DERIVATIVES AND USES THEREOF” (FOGHORN THERAPEUTICS INC., priority 2022, published 2025).

One test addresses T1, HiBit-BRM fusion protein (Homo sapiens, UniProt P51531).
T1 construct: expressed in transfected cells
Nature of the test: HiBiT-BRM cell-based degradation assay (Nano-Glo HiBiT lytic detection, 24 h). To be noted: HeLa cell line expressing HiBiT-BRM; for DC50: read-out: BRM HiBit Degradation IC50. The method in brief: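 Luminescence from LgBiT complementation quantified remaining HiBiT-BRM in stably expressing HeLa cells after 24 h compound exposure (top final dose 30 μM, 3-fold, 10 points, duplicate). Degradation expressed as percent relative to DMSO and a 2 μM reference degrader.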

The target in test [1] is T2, HiBit-BRG1 fusion protein (Homo sapiens, UniProt P51532).
T2 construct: expressed in transfected cells
T2 sequence (P51532 whole entry, the tested form may be a part): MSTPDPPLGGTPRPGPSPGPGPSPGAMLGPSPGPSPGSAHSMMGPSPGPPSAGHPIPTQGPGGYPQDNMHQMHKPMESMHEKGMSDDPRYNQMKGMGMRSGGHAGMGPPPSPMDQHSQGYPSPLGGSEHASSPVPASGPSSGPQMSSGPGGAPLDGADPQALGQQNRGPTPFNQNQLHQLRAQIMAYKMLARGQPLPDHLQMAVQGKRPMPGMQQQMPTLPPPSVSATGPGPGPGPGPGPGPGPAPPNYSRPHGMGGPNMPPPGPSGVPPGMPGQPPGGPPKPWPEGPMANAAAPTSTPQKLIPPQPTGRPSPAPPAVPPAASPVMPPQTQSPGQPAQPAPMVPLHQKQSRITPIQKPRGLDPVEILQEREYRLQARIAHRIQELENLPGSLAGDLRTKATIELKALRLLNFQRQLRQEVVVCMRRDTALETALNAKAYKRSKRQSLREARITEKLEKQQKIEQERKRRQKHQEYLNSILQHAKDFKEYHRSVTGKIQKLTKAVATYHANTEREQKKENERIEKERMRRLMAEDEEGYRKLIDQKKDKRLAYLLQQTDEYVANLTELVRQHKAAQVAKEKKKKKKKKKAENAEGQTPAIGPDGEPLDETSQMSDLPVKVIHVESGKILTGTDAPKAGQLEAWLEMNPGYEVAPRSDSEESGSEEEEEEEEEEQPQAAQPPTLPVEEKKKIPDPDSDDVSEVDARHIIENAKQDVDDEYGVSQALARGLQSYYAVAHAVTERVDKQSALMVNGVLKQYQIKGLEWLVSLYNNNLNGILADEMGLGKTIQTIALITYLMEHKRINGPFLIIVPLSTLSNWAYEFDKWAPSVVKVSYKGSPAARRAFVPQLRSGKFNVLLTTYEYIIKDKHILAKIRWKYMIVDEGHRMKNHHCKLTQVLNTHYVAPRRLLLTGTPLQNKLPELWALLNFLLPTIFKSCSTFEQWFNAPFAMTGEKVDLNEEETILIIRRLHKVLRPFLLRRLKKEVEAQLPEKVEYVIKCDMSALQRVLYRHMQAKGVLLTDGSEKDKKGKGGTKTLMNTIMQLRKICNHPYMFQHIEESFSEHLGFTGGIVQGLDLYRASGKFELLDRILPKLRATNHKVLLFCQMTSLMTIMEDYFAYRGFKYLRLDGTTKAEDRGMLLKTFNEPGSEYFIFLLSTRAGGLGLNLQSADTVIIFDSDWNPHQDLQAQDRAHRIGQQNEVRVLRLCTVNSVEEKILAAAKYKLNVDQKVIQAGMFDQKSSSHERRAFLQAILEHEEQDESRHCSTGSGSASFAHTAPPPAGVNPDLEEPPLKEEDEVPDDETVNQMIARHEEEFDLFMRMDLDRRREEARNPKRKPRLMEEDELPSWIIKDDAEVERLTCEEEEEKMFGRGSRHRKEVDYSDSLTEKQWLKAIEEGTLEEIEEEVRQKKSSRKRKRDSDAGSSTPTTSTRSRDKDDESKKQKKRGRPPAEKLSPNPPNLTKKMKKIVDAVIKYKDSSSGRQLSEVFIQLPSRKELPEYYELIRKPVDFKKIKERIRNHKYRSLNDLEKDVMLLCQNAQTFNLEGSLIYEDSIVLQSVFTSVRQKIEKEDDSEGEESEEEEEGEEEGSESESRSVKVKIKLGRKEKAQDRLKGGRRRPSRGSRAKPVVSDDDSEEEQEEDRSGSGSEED
The experiment in a line: HiBiT-BRG1 cell-based degradation assay (Nano-Glo HiBiT lytic detection, 24 h). Particulars: HeLa cell line expressing HiBit-BRG1 and LgBit; for Dmax: read-out: BRG1 HiBit Degradation Maximum (%); for DC50: read-out: BRMG1 HiBit Degradation IC50. In a few lines: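 Luminescence from HiBiT/LgBiT complementation after lytic detection reagent was read following 24 h compound exposure of HeLa cells stably carrying HiBiT-BRG1 plus LgBiT (5000 cells/well). Signal scaled to % degradation using DMSO-treated cells as 0% and cells given 2 μM known BRM/BRG1 degrader as 100%.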
Background: HiBiT is a short tag that completes a luciferase, so light tracks the accessible tagged protein.

Structures are written as SMILES.

T1 sequence (P51531 whole entry, the tested form may be a part): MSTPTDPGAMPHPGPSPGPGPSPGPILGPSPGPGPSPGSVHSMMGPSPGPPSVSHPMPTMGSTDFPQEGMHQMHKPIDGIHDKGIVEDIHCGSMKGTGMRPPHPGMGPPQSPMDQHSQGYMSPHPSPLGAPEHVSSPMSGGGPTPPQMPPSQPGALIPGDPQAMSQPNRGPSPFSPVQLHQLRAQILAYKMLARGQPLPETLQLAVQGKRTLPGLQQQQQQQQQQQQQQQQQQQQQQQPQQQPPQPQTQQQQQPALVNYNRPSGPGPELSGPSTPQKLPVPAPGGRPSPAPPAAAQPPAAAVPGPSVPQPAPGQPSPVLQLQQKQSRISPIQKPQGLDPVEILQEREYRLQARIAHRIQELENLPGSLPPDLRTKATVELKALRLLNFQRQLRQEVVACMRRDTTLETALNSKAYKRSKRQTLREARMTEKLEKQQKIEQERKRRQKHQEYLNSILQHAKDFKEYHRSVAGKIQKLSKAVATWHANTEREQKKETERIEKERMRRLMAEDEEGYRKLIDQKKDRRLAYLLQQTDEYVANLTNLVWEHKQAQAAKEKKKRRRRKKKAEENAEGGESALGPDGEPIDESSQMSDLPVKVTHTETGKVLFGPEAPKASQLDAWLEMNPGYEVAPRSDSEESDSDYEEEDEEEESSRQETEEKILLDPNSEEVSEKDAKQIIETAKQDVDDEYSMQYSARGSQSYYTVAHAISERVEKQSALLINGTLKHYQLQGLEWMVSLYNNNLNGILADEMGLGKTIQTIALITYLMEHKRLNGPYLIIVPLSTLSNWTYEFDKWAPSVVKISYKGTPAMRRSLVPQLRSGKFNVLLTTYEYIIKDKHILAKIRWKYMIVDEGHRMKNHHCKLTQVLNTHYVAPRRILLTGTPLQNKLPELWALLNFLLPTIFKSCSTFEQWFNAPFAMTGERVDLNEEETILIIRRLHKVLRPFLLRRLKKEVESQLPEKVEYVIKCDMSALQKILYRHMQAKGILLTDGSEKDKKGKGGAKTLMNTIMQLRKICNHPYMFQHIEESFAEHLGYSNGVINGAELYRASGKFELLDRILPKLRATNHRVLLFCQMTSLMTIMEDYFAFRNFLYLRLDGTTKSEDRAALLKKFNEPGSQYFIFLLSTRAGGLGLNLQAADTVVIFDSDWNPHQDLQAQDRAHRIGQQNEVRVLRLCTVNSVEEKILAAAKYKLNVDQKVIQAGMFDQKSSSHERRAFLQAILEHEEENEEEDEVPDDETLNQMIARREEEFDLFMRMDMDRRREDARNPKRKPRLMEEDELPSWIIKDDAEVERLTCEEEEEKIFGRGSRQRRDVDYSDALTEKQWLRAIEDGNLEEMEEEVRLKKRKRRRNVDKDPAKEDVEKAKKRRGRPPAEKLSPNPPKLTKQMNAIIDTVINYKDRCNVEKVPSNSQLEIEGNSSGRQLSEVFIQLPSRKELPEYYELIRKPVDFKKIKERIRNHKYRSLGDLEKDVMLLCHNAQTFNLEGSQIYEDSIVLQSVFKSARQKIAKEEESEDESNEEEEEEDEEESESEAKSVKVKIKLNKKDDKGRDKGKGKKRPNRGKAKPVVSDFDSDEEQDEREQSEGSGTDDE

`CCn1c(C2CCN(c3ncc(-c4cc([C@@H](C(=O)N5C[C@H](O)C[C@H]5C(=O)N[C@@H](C)c5ccc(-c6scnc6C)cc5)C(C)C)on4)cn3)CC2)cc2nnc(-c3ccccc3O)cc21` [Compound 24, (2S,4R)-1-[(2S)-2-[3-(2-{4-[5-ethyl-3-(2-hydroxyphenyl)pyrrolo[3,2-c]pyridazin-6-yl]piperidin-1-yl}pyrimidin-5-yl)-1,2-oxazol-5-yl]-3-methylbutanoyl]-4-hydroxy-N-[(1S)-1-[4-(4-methyl-1,3-thiazol-5-yl)phenyl]ethyl]pyrrolidine-2-carboxamide]: at HiBit-BRM fusion protein, the “BRM HiBit Degradation Maximum (%)” value is “B (“B” indicates maximum degradation ≥50%)” and the DC50 is > 10 nM. In test [1], the Dmax is < 50%.

On to `Cc1ncsc1-c1ccc([C@H](C)NC(=O)[C@@H]2C[C@@H](O)CN2C(=O)[C@@H](c2cc(OCCN3CC(c4cc5nnc(-c6ccccc6O)cc5[nH]4)C3)no2)C(C)C)cc1` [Compound 1, (2S,4R)-4-hydroxy-1-[(2R)-2-[3-(2-{3-[3-(2-hydroxyphenyl)-5H-pyrrolo[3,2-c]pyridazin-6-yl]azetidin-1-yl}ethoxy)-1,2-oxazol-5-yl]-3-methylbutanoyl]-N-[(1S)-1-[4-(4-methyl-1,3-thiazol-5-yl)phenyl]ethyl]pyrrolidine-2-carboxamide], for which, on HiBit-BRM fusion protein, the “BRM HiBit Degradation Maximum (%)” value is recorded as “A (“A” indicates maximum degradation ≥75%)” and the DC50 was > 10 nM. In test [1], the Dmax is > 75% and the DC50 is > 100 nM.

Take `Cc1ncsc1-c1ccc([C@H](C)NC(=O)[C@@H]2C[C@@H](O)CN2C(=O)[C@H](c2cc(-c3cnc(N4CCC(c5cc6nnc(-c7ccccc7O)cc6n5C(C)C)CC4)nc3)no2)C(C)C)cc1` [Compound 44]: on HiBit-BRM fusion protein, the “BRM HiBit Degradation Maximum (%)” value is “B (“B” indicates maximum degradation ≥50%)” and the DC50 was < 10 nM. Also, the Dmax in test [1] is < 50%.

As to `Cc1ncsc1-c1ccc([C@H](C)NC(=O)[C@@H]2C[C@@H](O)CN2C(=O)[C@@H](c2cc(N3CCC4(CC[C@H](c5cc6nnc(-c7ccccc7O)cc6n5C5CC5)C4)CC3)no2)C(C)C)cc1` [Compound 96, (2S,4R)-1-((R)-2-(3-((S)-2-(5-cyclopropyl-3-(2-hydroxyphenyl)-5H-pyrrolo[3,2-c]pyridazin-6-yl)-8-azaspiro[4.5]decan-8-yl)isoxazol-5-yl)-3-methylbutanoyl)-4-hydroxy-N-((S)-1-(4-(4-methylthiazol-5-yl)phenyl)ethyl)pyrrolidine-2-carboxamide], at HiBit-BRM fusion protein, the “BRM HiBit Degradation Maximum (%)” value is “A (“A” indicates maximum degradation ≥75%)” and the DC50 is < 10 nM. In test [1], the Dmax was > 50% and the DC50 was > 10 nM.

`Cc1ncsc1-c1ccc([C@H](C)NC(=O)[C@@H]2C[C@@H](O)CN2C(=O)[C@@H](c2cc(N3CC4(CCC(c5cc6nnc(-c7ccccc7O)cc6n5C5CC5)CC4)C3)no2)C(C)C)cc1` [Compound 87, (2S,4R)-1-((R)-2-(3-(7-(5-cyclopropyl-3-(2-hydroxyphenyl)-5H-pyrrolo[3,2-c]pyridazin-6-yl)-2-azaspiro[3.5]nonan-2-yl)isoxazol-5-yl)-3-methylbutanoyl)-4-hydroxy-N-((S)-1-(4-(4-methylthiazol-5-yl)phenyl)ethyl)pyrrolidine-2-carboxamide]: on HiBit-BRM fusion protein, the “BRM HiBit Degradation Maximum (%)” value is “A (“A” indicates maximum degradation ≥75%)” and the DC50 is < 10 nM. Moreover, in test [1], the Dmax is > 75% and the DC50 was < 10 nM.
